Assay results from US11236081B2, “Crystalline salts of corydalmine” (priority 2018, dated 2022).
“And” between values parts separate entries of the source, which are not always exact repeats. Equal entries are not always repeated.

Experiment: Pharmacokinetic study: plasma concentration and plasma PK parameters after IV/PO dosing (LC-MS/MS, WinNonlin)
Format: in vivo, Male SD Rat
Settings: male SD rat
Text: Pharmacokinetic and Brain Penetration Study
Dose formulation processing during dosing: The dose formulations will be kept at room temperature.
Concentrations of Test Article in the plasma samples will be analyzed using a LC-MS/MS method.
WinNonlin (Phoenix™, version 6.1) or other similar software will be used for pharmacokinetic calculations. The following pharmacokinetic parameters will be calculated, whenever possible from the plasma concentration versus time data:
IV administration: T1/2, C0, AUClast, AUCinf, MRTinf, Cl, Vss, Number of Points for Regression.
PO administration: T1/2, Cmax, Tmax, MRTinf, AUCinf, AUClast, F %, Number of Points for Regression.
The pharmacokinetic data will be described using descriptive statistics such as mean, standard deviation.

[1] = IV 3 mg/kg, plasma, individual rats, listed as TLZ-16 freebase, 3 mg/kg
[2] = PO 10 mg/kg (equal to freebase), plasma, individual rats, vehicle 20% HP-β-CD in water (POA, freebase) or water (salts), listed as TLZ-16 freebase, 10 mg/kg
[3] = PO 10 mg/kg (equal to freebase), plasma, mean n=3, vehicle 20% HP-β-CD in water (POA, freebase) or water (salts)

Compound: COc1cc2c(cc1OC)[C@@H]1Cc3ccc(O)c(OC)c3CN1CC2 [Compound (1), l-corydalmine]
- concentration in plasma (IV 3 mg/kg, 0 h, individual rats): BLOQ (BLOQ = below limit of quantitation (0.2 ng/mL))
- concentration in plasma (IV 3 mg/kg, 0.083 h, individual rats, listed as TLZ-16 freebase, 3 mg/kg): 1410 ng/mL and 1610 ng/mL
- concentration in plasma (IV 3 mg/kg, 0.25 h, individual rats, listed as TLZ-16 freebase, 3 mg/kg): 960 ng/mL and 995 ng/mL
- concentration in plasma (IV 3 mg/kg, 0.5 h, individual rats, listed as TLZ-16 freebase, 3 mg/kg): 496 ng/mL and 536 ng/mL
- concentration in plasma (IV 3 mg/kg, 1 h, individual rats, listed as TLZ-16 freebase, 3 mg/kg): 174 ng/mL and 206 ng/mL
- concentration in plasma (IV 3 mg/kg, 2 h, individual rats, listed as TLZ-16 freebase, 3 mg/kg): 81.2 ng/mL and 60.6 ng/mL
- concentration in plasma (IV 3 mg/kg, 4 h, individual rats, listed as TLZ-16 freebase, 3 mg/kg): 28.6 ng/mL and 43.0 ng/mL and 20.2 ng/mL
- concentration in plasma (IV 3 mg/kg, 8 h, individual rats, listed as TLZ-16 freebase, 3 mg/kg): 5.24 ng/mL and 11.7 ng/mL and 2.20 ng/mL
- concentration in plasma (IV 3 mg/kg, 24 h, individual rats, listed as TLZ-16 freebase, 3 mg/kg): BLOQ (BLOQ = below limit of quantitation (0.2 ng/mL))
- AUCInf [1]: 1074 ng·h/mL and 1030 ng·h/mL
- AUClast [1]: 1038 ng·h/mL and 1027 ng·h/mL
- AUClast/D [1]: 312 kg·ng·h/mL/mg and 346 kg·ng·h/mL/mg and 342 kg·ng·h/mL/mg
- AUC—% Extrap_obs [1]: 1.32% and 3.37% and 0.306%
- C0 [1]: 1707 ng/mL and 2045 ng/mL
- Cl_obs [1]: 52.6 mL/min/kg and 46.5 mL/min/kg and 48.6 mL/min/kg
- MRTInf_obs [1]: 1.52 h and 1.08 h
- T1/2 [1]: 1.66 h and 2.14 h and 4.37 h
- Vss_obs [1]: 3.43 L/kg and 4.26 L/kg and 3.16 L/kg
- AUClast/D, Mean (IV 3 mg/kg, plasma, mean n=3): 334 kg·ng·h/mL/mg
- AUC—% Extrap_obs, Mean (IV 3 mg/kg, plasma, mean n=3): 1.67%
- C0, Mean (IV 3 mg/kg, plasma, mean n=3): 1822 ng/mL
- Cl_obs, Mean (IV 3 mg/kg, plasma, mean n=3): 49.2 mL/min/kg
- Vss_obs, Mean (IV 3 mg/kg, plasma, mean n=3): 3.61 L/kg
- F (PO 10 mg/kg (equal to freebase) vs IV 3 mg/kg freebase, individual rats, vehicle 20% HP-β-CD in water (POA, freebase) or water (salts), listed as TLZ-16 freebase): 18.4% and 27.3% and 24.4%
- F, Mean (PO 10 mg/kg (equal to freebase) vs IV 3 mg/kg freebase, mean n=3, vehicle 20% HP-β-CD in water (POA, freebase) or water (salts)): 23.4%
- concentration in plasma (PO 10 mg/kg (equal to freebase), 0 h, individual rats, vehicle 20% HP-β-CD in water (POA, freebase) or water (salts)): BLOQ (BLOQ = below limit of quantitation (0.2 ng/mL))
- concentration in plasma (PO 10 mg/kg (equal to freebase), 0.25 h, individual rats, vehicle 20% HP-β-CD in water (POA, freebase) or water (salts), listed as TLZ-16 freebase, 10 mg/kg): 127 ng/mL and 358 ng/mL and 86.7 ng/mL
- concentration in plasma (PO 10 mg/kg (equal to freebase), 0.5 h, individual rats, vehicle 20% HP-β-CD in water (POA, freebase) or water (salts), listed as TLZ-16 freebase, 10 mg/kg): 139 ng/mL and 344 ng/mL and 109 ng/mL
- concentration in plasma (PO 10 mg/kg (equal to freebase), 1 h, individual rats, vehicle 20% HP-β-CD in water (POA, freebase) or water (salts), listed as TLZ-16 freebase, 10 mg/kg): 167 ng/mL and 98.9 ng/mL
- concentration in plasma (PO 10 mg/kg (equal to freebase), 2 h, individual rats, vehicle 20% HP-β-CD in water (POA, freebase) or water (salts), listed as TLZ-16 freebase, 10 mg/kg): 53.1 ng/mL and 71.9 ng/mL
- concentration in plasma (PO 10 mg/kg (equal to freebase), 4 h, individual rats, vehicle 20% HP-β-CD in water (POA, freebase) or water (salts), listed as TLZ-16 freebase, 10 mg/kg): 47.1 ng/mL and 40.1 ng/mL
- concentration in plasma (PO 10 mg/kg (equal to freebase), 8 h, individual rats, vehicle 20% HP-β-CD in water (POA, freebase) or water (salts), listed as TLZ-16 freebase, 10 mg/kg): 35.7 ng/mL and 45.3 ng/mL
- concentration in plasma (PO 10 mg/kg (equal to freebase), 24 h, individual rats, vehicle 20% HP-β-CD in water (POA, freebase) or water (salts), listed as TLZ-16 freebase, 10 mg/kg): BLOQ (BLOQ = below limit of quantitation (0.2 ng/mL)) and 0.278 ng/mL and 0.869 ng/mL
- AUCInf [2]: 925 ng·h/mL and 829 ng·h/mL
- AUClast [2]: 924 ng·h/mL and 825 ng·h/mL
- AUClast/D [2]: 61.5 kg·ng·h/mL/mg and 92.4 kg·ng·h/mL/mg and 82.5 kg·ng·h/mL/mg
- AUC—% Extrap_obs [2]: 58.7% and 0.111% and 0.505%
- Cmax [2]: 139 ng/mL and 358 ng/mL and 109 ng/mL
- MRTInf_obs [2]: 13.6 h and 4.19 h and 5.68 h
- T1/2 [2]: 8.80 h and 2.57 h and 3.34 h
- Tmax [2]: 15 min
- AUClast/D, Mean [3]: 78.8 kg·ng·h/mL/mg
- AUC—% Extrap_obs, Mean [3]: 19.8%
